Molecular target: GRP78 (78 kDa glucose-regulated protein) (Homo sapiens, UniProt P11021, K326A)
Experiment: microscale thermophoresis
Format: binding

Sequence of GRP78 (78 kDa glucose-regulated protein) (P11021 19-654 K326A): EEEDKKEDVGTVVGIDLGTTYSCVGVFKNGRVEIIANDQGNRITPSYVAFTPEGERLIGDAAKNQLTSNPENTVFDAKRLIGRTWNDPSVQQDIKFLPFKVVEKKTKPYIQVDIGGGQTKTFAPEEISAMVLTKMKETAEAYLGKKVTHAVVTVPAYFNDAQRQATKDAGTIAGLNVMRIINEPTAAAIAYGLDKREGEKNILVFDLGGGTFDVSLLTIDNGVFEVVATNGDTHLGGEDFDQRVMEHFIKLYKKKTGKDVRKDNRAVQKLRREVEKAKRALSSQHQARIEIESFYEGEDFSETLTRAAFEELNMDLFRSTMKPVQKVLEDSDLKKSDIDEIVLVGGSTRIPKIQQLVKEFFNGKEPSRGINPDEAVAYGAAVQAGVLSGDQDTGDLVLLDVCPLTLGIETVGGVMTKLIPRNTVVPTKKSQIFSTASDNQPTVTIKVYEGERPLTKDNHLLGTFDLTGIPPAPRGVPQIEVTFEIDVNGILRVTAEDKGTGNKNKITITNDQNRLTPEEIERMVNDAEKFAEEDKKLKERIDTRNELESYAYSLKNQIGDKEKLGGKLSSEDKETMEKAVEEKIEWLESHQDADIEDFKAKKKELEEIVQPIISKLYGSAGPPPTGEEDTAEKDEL

## CC(=O)OC(C)(C)/C=C/C(=O)[C@](C)(O)[C@H]1[C@H](O)C[C@@]2(C)[C@@H]3CC=C4[C@@H](C[C@H](O)C(=O)C4(C)C)[C@]3(C)C(=O)C[C@]12C [CuB, cucurbitacin B]
  Kd: 25.4 µM

Reference: publication PMC9532536 (Acta Pharmaceutica Sinica. B, 2022)
